Test results: article PMC5145181, “Structural Mapping and Functional Characterization of Zebrafish Class B G-Protein Coupled Receptor (GPCR) with Dual Ligand Selectivity towards GLP-1 and Glucagon” (PLoS ONE, 2016)
pEC50: −log10 of the molar value.

Tests used:
GLP-1R = details: cited from earlier work
From the text: Receptors for GLP-1 (GLP-1R) and glucagon (GCGR) belong to the class B GPCRs that mediate the physiological effects of the peptides within the glucagon-secretin peptide family. Their structures are characterized by large amino terminal extracellular domains which are about 140 amino acids long and an intracellular core consisting of a cytoplasmic domain and seven transmembrane helices (7TMs) connected through three extracellular and three intracellular loops.

[1] = system: hGLP-1R mutant Asn318 to alanine; design: method as in PMID 23479653; details: Asn318 mutated to alanine, cell surface expression unchanged; cited from earlier work
[2] = system: zfGPCR (dual zfGLP-1R/GCGR); assay: Intracellular cAMP in COS-7 cells expressing recombinant zfGPCR; format: cell-based, zebrafish (Danio rerio); details: 20 min at 37°C, pH 7.4, 1 mM 1-methyl-3-isobutylxanthine, enzyme immunoassay; n = 9 zfGLP-1, n = 5 hGLP-1, zf glucagon, h glucagon, n = 3 exendin-4, n = 6 zfGLP-2. 95% CI: zfGLP-1 0.24–0.80; hGLP-1 0.65–1.63; zf glucagon 0.20–2.9; h glucagon 0.18–1.63; exendin-4 0.07–0.46; zfGLP-2 16.8–72.6
Method: The ability of different peptides to stimulate the increase in intracellular cAMP levels following their binding to the recombinant zfGPCR transiently expressed in COS-7 cells was measured using methods that we developed for non-mammalian G-protein coupled receptors. In brief, COS-7 cells were grown to confluence in 100-mm plates at 37°C and transfected with the pcDNA3 vector containing the recombinant zfGPCR using the TransFast transfection reagent (Promega, Madison, WI) at a […] of plasmid DNA (25 ug) to transfection reagent (75 μL). After 24 h cells were trypsynized and transferred to 24-well plates (Biocore, Becton-Dickinson, Franklin Lakes, NJ). Peptides (pM-μM) were added 24–48 h later. Cells were equilibrated prior to the addition of peptides with the assay buffer (DMEM, 0.5% BSA, 20mM HEPES, 1mM 1-methyl-3-isobutylxanthine, 0.1mM phenylmethylsulfonyl fluoride, pH 7.4) for 20 min at 37°C. Each peptide concentration was added in triplicate wells for 20 min at 37°C. cAMP dose-response curves for each tested peptide were obtained in a single 24-well plate. In all experiments, forskolin (100 nM) (Sigma-Aldrich, St.Louis, MO) was added as a positive control, also in triplicate wells, in the same 24-well plate as the tested peptide. After incubation, the media was removed and cells were lysed by the addition of cold ethanol (1 mL per well). Cell debris was pelleted by centrifugation (10,000 g) for 10-min, and supernatants were dried using a vacuum concentrator. Samples were resuspended in an assay buffer provided by the manufacturer and cAMP levels were quantified by the enzyme immunoassay kit (Cayman Chemicals, Ann Arbor, MI) according to the manufacturer’s instructions. The basal concentration of cAMP (in the absence of peptides) was taken as 1.00, and was in the range of 9–16 pmol/well. Results are presented as a fold-increase over basal.
Results were plotted by the Origin 9 software (OriginLab), and EC50 values were calculated by Prism 4 software as described below.
Results from the functional experiments with recombinant zfGPCR transiently expressed in COS-7 cells were analyzed by the Prism 4 software using a four-parameter logistic sigmoidal curve fit model. Data points represent mean +/- SEM.
They are shown together with the 95% confidence intervals (CIs).
Comparison of EC50 values calculated from the zfGLP-1 cAMP dose-response curve with the EC50 calculated from the cAMP dose-response curves for each of the tested peptides were performed by the F-test from the Prism 4 software which compares the fitted mid-point (EC50) from the data sets of the two dose-response curves under comparison. Conditions of analysis were as follows: (i) in the normalization step y = 0% was set to be 1 (the basal cAMP concentration taken as 1); y = 100% was set to be the largest value in each data set; (ii) constrained curve-fit parameters were set to be equal to 0.00 on the bottom, 100 on top; (iii) EC50 was not constrained; (iv) the selected option in the non-linear regression curve fit was intended on finding out whether the best-fit of a selected parameter (EC50) differs between two sets.

[3] = system: hGLP-1R mutant Ser155 to alanine; details: Ser152 in hGCGR = Ser155 in hGLP-1R, mutated to alanine; cited from earlier work
From the text: Among those are TM1-TM7 interaction between Ser152^1.50 and Ser 390^7.47 in which Ser152^1.50 in TM1 in hGCGR forms a hydrogen bond with the backbone of Ser390^7.47 in TM7.

exendin-4: peptide exclusively found in the saliva of a lizard; agonist of GLP-1R; purchased from Bachem
stimulation of intracellular cAMP, GLP-1 vs exendin-4 (GLP-1R): to a similar degree | receptor affinity [1]: reduced the receptor’s affinity | pEC50 [2]: 9.74 | receptor affinity [3]: small reduction of receptor affinity
